From ChEMBL document CHEMBL1123782, “6-Alkoxy-N,N-disubstituted-2-pyridinamines as anticonvulsant agents” (1987)

Assays:
Assay type in all cases: functional
[1] = tested on: Mus musculus; assay: Anticonvulsant activity was determined in mouse (administered perorally) tested for 2.0 hours using maximal electric shock test (ADD program); conditions: po
[2] = tested on: Rattus norvegicus; assay: Anticonvulsant activity was determined in rat (administered perorally) tested for 4 hours using ataxia test; conditions: po
[3] = tested on: Mus musculus; assay: Anticonvulsant activity was determined in mouse (administered intraperitoneally) tested for 2.0 hours using electroshock test; conditions: ip
[4] = tested on: Mus musculus; assay: Anticonvulsant activity was determined in mouse (administered perorally) tested for 2.0 hours using inverted wire mesh ataxia test; conditions: po
[5] = tested on: Mus musculus; assay: Anticonvulsant activity was determined in mouse (administered intraperitoneally) tested for 2.0 hours using maximal electroshock test.; conditions: ip
[6] = tested on: Mus musculus; assay: Anticonvulsant activity was determined in mouse (administered perorally) tested for 2.0 hours using rotarod ataxia test (ADD program); conditions: po
[7] = tested on: Rattus norvegicus; assay: Anticonvulsant activity was determined in rat (administered perorally) tested for 0.5 hours using maximal electroshock test; conditions: po
[8] = tested on: Mus musculus; assay: Anticonvulsant activity was determined in mouse (administered intraperitoneally) tested for 2.0 hours using rotarod ataxia test (ADD program); conditions: ip
[9] = tested on: Mus musculus; assay: Anticonvulsant activity was determined in mouse (administered perorally) tested for 2.0 hours using maximal electroshock test; conditions: po
[10] = tested on: Mus musculus; assay: Anticonvulsant activity was determined in mouse (administered intraperitoneally) tested for 2.0 hours using maximal electroshock test (ADD program); conditions: ip
[11] = tested on: Mus musculus; assay: Anticonvulsant activity was determined in mouse (administered intraperitoneally) tested for 2.0 hours using inverted wire mesh ataxia test; conditions: ip
[12] = tested on: Mus musculus; assay: Anticonvulsant activity was determined in mouse (administered intraperitoneally) tested for 2.0 hours using maximal electric shock test (ADD program); conditions: ip
[13] = tested on: Mus musculus; assay: Anticonvulsant activity was determined in mouse administered perorally tested for 2.0 hours using maximal electric shock test; conditions: po
[14] = tested on: Mus musculus; assay: Anticonvulsant activity expressed as minimum ataxic dose (MAD) at which mice fell off inverted screen at 30 min post administration
[15] = tested on: Mus musculus; assay: Anticonvulsant activity expressed as minimum effective dose (MED) against tonic extension produced by maximal electroshock (MES) at 30 min post administration in mice; conditions: 0.5 h, read-out: MED
[16] = tested on: Mus musculus; assay: Anticonvulsant activity was determined in mouse (administered intraperitoneally) tested for 0.5 hours using maximal electroshock test; conditions: ip
[17] = tested on: Mus musculus; assay: Anticonvulsant activity was determined in mouse (administered perorally) tested for 1 hour using rotarod ataxia test (ADD program); conditions: po
[18] = tested on: Mus musculus; assay: Anticonvulsant activity was determined in mouse (administered intraperitoneally) tested for 0.5 hours using inverted wire mesh ataxia test; conditions: ip
[19] = tested on: Mus musculus; assay: Anticonvulsant activity was determined in mouse (administered intraperitoneally) tested for 0.5 hours using rotarod ataxia test (ADD program); conditions: ip
[20] = tested on: Mus musculus; assay: Anticonvulsant activity was determined in mouse (administered intraperitoneally) for 0.5 hours using inverted wire mesh ataxia test; conditions: ip
[21] = tested on: Mus musculus; assay: Anticonvulsant activity was determined in mouse (administered perorally) tested for 0.5 hours using inverted wire mesh ataxia test; conditions: po
[22] = tested on: Mus musculus; assay: Anticonvulsant activity was determined in mouse (administered intraperitoneally) for 0.5 hours using maximal electroshock test; conditions: ip
[23] = tested on: Mus musculus; assay: Anticonvulsant activity was determined in mouse (administered intraperitoneally) tested for 0.5 hours using maximal electroshock test (ADD program); conditions: ip
[24] = tested on: Mus musculus; assay: Anticonvulsant activity was determined in mouse (administered intraperitoneally) for 0.5 hours using maximal electroshock test (ADD program); conditions: ip
[25] = tested on: Mus musculus; assay: Anticonvulsant activity was determined in mouse (administered perorally) for 0.5 hours using maximal electroshock test (ADD) program; conditions: po
[26] = tested on: Mus musculus; assay: Anticonvulsant activity was determined in mouse (administered perorally) tested for 1 hour using maximal electroshock test; conditions: po
[27] = tested on: Mus musculus; assay: Anticonvulsant activity was determined in mouse (administered intraperitoneally) for 0.5 hours using rotarod ataxia test (ADD program); conditions: ip
[28] = tested on: Mus musculus; assay: Anticonvulsant activity was determined in mouse (administered perorally) tested for 0.5 hours using maximal electroshock test (ADD program); conditions: po

O=C1NC(=O)C(c2ccccc2)(c2ccccc2)N1 [PHENYTOIN]
ED50 [1]: 9.8 mg/kg
ED50 [2]: > 3000 mg/kg
ED50 [3]: 7.4 mg/kg
ED10 [4]: 50 mg/kg
ED50 [4]: 78 mg/kg
ED90 [4]: 125 mg/kg
ED10 [5]: 3.7 mg/kg
ED90 [5]: 15 mg/kg
ED50 [6]: 95 mg/kg
ED50 [7]: 33 mg/kg
ED10 [8]: 60 mg/kg
ED50 [8]: 71 mg/kg
ED90 [8]: 86 mg/kg
ED10 [9]: 4.9 mg/kg
ED90 [9]: 14 mg/kg
ED10 [10]: 8.4 mg/kg
ED50 [10]: 10.4 mg/kg
ED10 [11]: 33 mg/kg
ED50 [11]: 45 mg/kg
ED90 [11]: 63 mg/kg
ED90 [12]: 13 mg/kg
ED50 [13]: 8.3 mg/kg

CC(C)COc1cccc(N2CCCNCC2)n1
MAD [14]: 100 mg/kg
minimal effective dose [15]: 30 mg/kg

c1cc(OCC2CCCCC2)nc(N2CCNCC2)c1
MAD [14]: 30 mg/kg
minimal effective dose [15]: 30 mg/kg

CCOc1cccc(N2CCNCC2)n1
MAD [14]: 10 mg/kg
minimal effective dose [15]: 30 mg/kg

COc1cccc(N2CCNCC2)n1
MAD [14]: 10 mg/kg
minimal effective dose [15]: 30 mg/kg

CC(C)COc1cccc(N2CCNCC2)n1
ED10 [2]: 340 mg/kg
ED50 [2]: 525 mg/kg
ED90 [2]: 830 mg/kg
ED10 [16]: 5.4 mg/kg
ED90 [16]: 10.7 mg/kg
ED10 [17]: 115 mg/kg
ED50 [17]: 139 mg/kg
ED90 [17]: 164 mg/kg
ED10 [18]: 6.6 mg/kg
ED90 [18]: 39 mg/kg
ED10 [7]: 6.6 mg/kg
ED50 [7]: 36 mg/kg
ED90 [7]: 195 mg/kg
ED10 [19]: 30 mg/kg
ED90 [19]: 69 mg/kg
ED50 [20]: 16 mg/kg
MAD [14]: 30 mg/kg
ED10 [21]: 11 mg/kg
ED50 [21]: 35 mg/kg
ED90 [21]: 114 mg/kg
ED50 [22]: 7.5 mg/kg
ED10 [23]: 5 mg/kg
ED90 [23]: 11.2 mg/kg
ED50 [24]: 7.5 mg/kg
ED50 [25]: 19 mg/kg
minimal effective dose [15]: 10 mg/kg
ED10 [26]: 7.6 mg/kg
ED50 [26]: 11.1 mg/kg
ED90 [26]: 17 mg/kg
ED50 [27]: 46 mg/kg
ED10 [28]: 10.7 mg/kg
ED90 [28]: 35 mg/kg

CC(C)Oc1cccc(N2CCNCC2)n1
MAD [14]: <10 mg/kg
minimal effective dose [15]: 30 mg/kg

CC(C)COc1cccc(NCCN(C)C)n1
MAD [14]: 300 mg/kg
minimal effective dose [15]: 100 mg/kg

CC(C)COc1cccc(N2CCCCC2)n1
MAD [14]: >300 mg/kg
minimal effective dose [15]: > 300 mg/kg

CN(C)CCOc1cccc(N2CCNCC2)n1
MAD [14]: >300 mg/kg
minimal effective dose [15]: > 300 mg/kg

c1cc(OCC2CC2)nc(N2CCNCC2)c1
MAD [14]: 10 mg/kg
minimal effective dose [15]: 10 mg/kg

CC(C)COc1cccc(N2CCN(C)CC2)n1
MAD [14]: 30 mg/kg
minimal effective dose [15]: 30 mg/kg

CC(C)COc1cccc(N2CCOCC2)n1
MAD [14]: 300 mg/kg
minimal effective dose [15]: 300 mg/kg

Oc1cccc(N2CCNCC2)n1
MAD [14]: >300 mg/kg
minimal effective dose [15]: > 300 mg/kg

c1cc(OC2CCCCC2)nc(N2CCNCC2)c1
MAD [14]: 10 mg/kg
minimal effective dose [15]: 30 mg/kg
